# Values of other authors, collected in patent publication US20210268080A1, “IMMUNE STIMULATING COMPOSITIONS FOR THE TREATMENT AND REVENTION OF INFECTIONS WITH INTRACELLULAR PATHOGENS” (priority 2018, published 2021).
# Test system: Trypanosoma cruzi
Compound,onset of heart disease (adults with chronic Chagas infections),cure rate (children aged six to 12 years with chronic disease),patients who fail to complete the drug regimen due to toxicities (months-long regimen),serum parasite detection (patients with established Chagas cardiomyopathy),"cardiac clinical deterioration (patients with established Chagas cardiomyopathy, five years of follow-up)","efficacy in human studies (human, in vivo)"
O=C(Cn1ccnc1[N+](=O)[O-])NCc1ccccc1 [benznidazole],slow the onset,about 60%,~20%,significantly reduced,did not significantly reduce,
CC[C@@H]([C@H](C)O)n1ncn(-c2ccc(N3CCN(c4ccc(OC[C@@H]5CO[C@@](Cn6cncn6)(c6ccc(F)cc6F)C5)cc4)CC3)cc2)c1=O [posaconazole],,,,,,limited efficacy
